The values that follow come from patent US7973021B2, “Immunomodulating agent in gut” (Kabushiki Kaisha Hayashibara Seibutsu Kagaku Kenkyujo, priority 2005, dated 2011).

Assay [1] concerns Peyer's patch cells. Description: Effects of saccharides on IFN-γ and IL-4 production of Peyer's patch cells in vitro (ELISA). The conditions noted are these: saccharide 0.1 mg/ml; for Relative amount of IFN-γ / Relative amount of IL-4: 72 hours, relative to control; for IFN-γ production by stimulation of concanavalin A (in words): in vitro. In kind it is cell-based, mice. On the procedure: To investigate direct effects of various saccharides on Peyer's patch cells, the amounts of IFN-γ and IL-4 produced in Peyer's patch cells taken from mice by adding various kinds of saccharide in an in vitro experiment. After six-week-old female BALB/c mice were preliminarily grown for a week with a standard growth purified diet (AIN-93G), their Peyer's patch cells were collected according to the method of Experiment 3. The cell suspension at a concentration of 1×10^6 cells/ml was prepared with RPMI1640 medium containing 10% FCS and 10 mM HEPES and seeded in 24-well microplates by 1 ml/well. After the test saccharides (the cyclic tetrasaccharide, nigerose or isomaltose) were added in an amount of 0.1 mg/ml and lipopolysaccharide (LPS) or concanavalin A (ConA) of 2 μg/ml, they were cultured at 37° C. for 72 hours in an atmosphere of 5% carbon dioxide. The amounts of IFN-γin the supernatants were measured by the ELISA method using anti-mouse- IFN-γ antibodies (MURINE IFN-γELISA DEVELOPMENT KIT, produced by PeproTech, Inc.), and the amounts of IL-4 were measured by the ELISA method using anti-mouse-IL-4 antibodies (Mouse IL-4 ELISA DEVELOPMENT KIT, produced by Genzyme-Techne). As a control, the amounts of IFN-γ and IL-4 produced in Peyer's patch cells cultured with the medium without adding the test saccharides by the same way described above. The values in Table 5 were shown as the relative amounts (%) to control.
In general terms: ELISA stands for enzyme-linked immunosorbent assay.

Assay [2] deals with female BALB/c mice. Description: IgA content in feces of mice fed saccharide-supplemented purified diet (ELISA). In kind it is in vivo. To be noted: for IgA content in feces: average of five mice. On the procedure: To investigate immunomodulating effects of various saccharides, IgA contents in feces of mice administered saccharides were measured. After six-week-old female BALB/c mice were preliminarily grown for a week with AIN-93G, which is a standard growth purified diet for nutritional study using mice or rats introduced by American Institute of Nutrition in 1993, they were separated in groups of five mice each, and unlimitedly administered the test diets, which is made by supplementing 5 w/w % of the cyclic tetrasaccharide (produced in Example 2), 5 w/w % of nigerooligosaccharide (12.5 w/w % of “NISSHOKU TASTE OLIGO SYRUP”, containing 40% or more of nigerooligosaccharide on a dry solid basis, commercialized by Nihon Shokuhin Kako Co., Ltd.), or 5 w/w % of isomaltooligosaccharide (“ISOMALT 90” commercialized by Hayashibara Shoji, Inc.) to the same formula diet described above except the amount of corn starch was reduced by the relevant weight of the added test saccharide. As control, one group was administered with the standard growth purified diet (AIN-93G) without the test saccharides described above. After 1, 2, 3 and 4 weeks from the initial administration of the test or control diets, fresh feces were taken from each mouse and IgA content was measured by the ELISA method using anti-IgA antibody (MOUSE IgA ELISA QUANTITATION KIT produced by Bethyl Laboratories, Inc). The values expressed in percent in Table 1 mean the relative amounts with respect to control in each week.

In assay [3] the test system is female BALB/c mice. Description: Analysis of cecal contents (pH, weight, IgA, IgG) of mice fed saccharide diets for 4 weeks. The class given is in vivo. As to the method:
To investigate the immunomodulating effect of the various saccharides, IgA content and IgG content in the cecal contents of the mice administered saccharides were measured. After the mice fed on the purified diet containing the test saccharide or the control purified diet (AIN-93G) for 4 weeks in Experiment 1 were killed, their cecums were surgically removed. After the pH and weight of the cecum contents were measured, IgA content and IgG content in the cecal contents were measured. IgA content was measured by ELISA method using anti-IgA antibodies and IgG content was measured by ELISA method using anti-IgG antibodies (MOUSE IgG ELISA QUANTITATION KIT produced by Bethyl Laboratories, Inc) and the amounts of the antibodies per gram of the cecal contents were obtained.

Assay [4] deals with Peyer's patch cells. Description: IgA, IL-6 and TGF-β produced by Peyer's patch cells taken from mice administered the saccharides (ConA culture, ELISA). In kind it is in vivo. On the procedure:
To investigate the immnomodulating effect of the various saccharides, the contents of IgA, IL-6 and TGF-βproduced by the Peyer's patch cells taken from the mice administered the saccharides. After the Peyer's patches taken from the mice administered with the purified diet containing the test saccharides or the control purified diet in Experiment 2 were cut by scissors, they were treated in 0.2 w/w % collagenase solution at 37° C. for 30 minutes. They were filtered through a cell strainer and the filtrate containing the cells were centrifuged to give the cell precipitates. They were suspended in 45 w/w % PARCOR (commercialized by Amersham, PLC), the cell suspensions were layered on 75 w/w % PARCOR and centrifuged for 10 minutes at 1,000 g. Cells floating at the interface between 45 w/w % PARCOR and 75 w/w % PARCOR were collected and suspended in RPM1164 medium containing 10% FCS and 10 mM HEPES to give the cell suspensions at a concentration of 1×10^6 cells/ml. They were seeded in 24-well microplates by 1 ml/well, added with 2 μg/m1 of concanavalin A, and cultured at 37° C. for 48 hours in atmosphere of 5% carbon dioxide. The culture supernatant was collected from each well and their IgA contents, TGF-βcontents or IL-6 contents were measured by ELISA method using anti-mouse-IgA antibody, anti-mouse-IL-6 antibody and anti-mouse-TGF-μ1 antibody, then the averages were calculated from the data of five mice. The values in Table 3 means relative amounts (%) to IgA, IL-6 or TGF-β amount produced in Peyer's patch cells taken from the control mice.

The test system of assay [5] is female BALB/c mice. Kind of assay: Amounts of organic acids in cecal contents of mice ingesting the saccharides (ion chromatography). The class given is in vivo. As to the method: To investigate the effects of the various saccharides on the enteric environment of mice, the contents of organic acids in the cecal contents were measured. After the cecal contents taken from the mice administered the purified diet containing the test saccharides or the control purified diet in Experiment 2 were suspended in an adequate amount of purified water, their supernatants collected by centrifugation were filtered with membrane (pore size of 0.45 μm). The filtrates were subjected to an ion chromatoanalyzer IC500P (produced by Yokogawa Electric Corporation) loaded with precolumn PCS5-052 and separation column SCS5-252, and eluted with 2 mM sulfuric acid (1.0 ml/min) to analyze the amounts of organic acids. The values expressed in percent in Table 4 mean the relative amounts of each organic acid in the cecal contents to those of the control mice.

[6] abbreviates: after 4 weeks on 5 w/w % saccharide diet.
Where [7] appears, read: after 4 weeks on 5 w/w % saccharide diet, per gram of cecal contents.
Setting [8] is: cells from mice administered the saccharide.
[9] abbreviates: relative to Peyer's patch cells of control mice, 2 μg/ml concanavalin A, 48 hours, average of five mice.
Where [10] appears, read: cecal contents, 4 weeks on 5 w/w % saccharide diet.

In the case of `OC[C@H]1O[C@H](OC[C@H]2OC(O)[C@H](O)[C@@H](O)[C@@H]2O)[C@H](O)[C@@H](O)[C@@H]1O` (stereo partly shown) [Isomaltose, isomaltose], in assay [1] (ConA 2 μg/ml), the “Relative amount of IFN-γ” value turned out to be 53% and the “Relative amount of IL-4” value is on record as 100%. Moreover, in assay [1] (LPS 2 μg/ml), the “Relative amount of IFN-γ” value stood at 100% and the “Relative amount of IL-4” value is 97%. Further, the “IFN-γ production by stimulation of concanavalin A (in words)” value (“IFN-γ production by stimulation” for short) in assay [1] is given as “suppressed”.

Take `OC[C@H]1O[C@@H]2OC[C@H]3O[C@H](O[C@@H]4[C@@H](O)[C@@H](OC[C@H]5O[C@H](O[C@H]([C@H]2O)[C@@H]1O)[C@H](O)[C@@H](O)[C@@H]5O)O[C@H](CO)[C@H]4O)[C@H](O)[C@@H](O)[C@@H]3O` [Cyclic tetrasaccharide, cyclo{>6)-α-D-glucopyranosyl-(1>3)-α-D -glucopyranosyl-(1>6)-α-D-glucopyranosyl-(1>3)-α-D -glucopyranosyl-(1>}]: in assay [2] (First week (age in 8 weeks), 5 w/w % saccharide in AIN-93G diet), the “IgA content in feces” value is given as 5.61 mg/g. Also, the “IgA content in feces, relative amount with respect to control” value (from here on “IgA content in feces, relative amount”) in assay [2] (First week, 5 w/w % saccharide in diet) amounted to 106%. The “IgA content in feces” value in assay [2] (Fourth week (age in 11 weeks), 5 w/w % saccharide in diet) is 7.09 mg/g. Further, the “IgA content in feces, relative amount” value in assay [2] (Fourth week, 5 w/w % saccharide in diet) was 328%. For the same compound, the “IgA content in feces” value in assay [2] (Second week (age in 9 weeks), 5 w/w % saccharide in diet) came to 8.47 mg/g. Besides, in assay [2] (Second week, 5 w/w % saccharide in diet), the “IgA content in feces, relative amount” value turned out to be 214%. For the same compound, the “IgA content in feces” value in assay [2] (Third week (age in 10 weeks), 5 w/w % saccharide in diet) came out at 7.57 mg/g. Also, the “IgA content in feces, relative amount” value in assay [2] (Third week, 5 w/w % saccharide in diet) is listed as 346%. Further, the “IgA contents in feces of the mice (in words)” value in assay [2] (added in the purified diet) is given as “increased”. Further, the “IgA contents in cecal contents (in words)” value in assay [3] (4 weeks on saccharide diet) is reported as “highest increase”. In addition, in assay [3] (setting [6]), the “Weight of cecal contents” value is 169 mg and the “pH of cecal contents” value is given as 7.16. In addition, in assay [3] (setting [7]), the “IgA content in cecal contents” value is recorded as 4.4 mg/g and the “IgG content in cecal contents” value came out at 85 mg/g. In assay [4] (setting [8]), the “IgA secretion in Peyer's patch cells (in words)” value was “increased”, the “production of IL-6 in Peyer's patch cells (in words)” value is on record as “increased” and the “production of TGF-β in Peyer's patch cells (in words)” value is reported as “increased”. In addition, in assay [4] (setting [9]), the “Relative IL-6 content” value is recorded as 326%, the “Relative IgA content” value worked out at 209% and the “Relative TGF-β content” value amounted to 142%. Also, in assay [5] (cecal contents), the “Acetic acid, relative amount to control mice” value is “(94%)”; the “Formic acid, relative amount to control mice” value is “(258%)”; the “Isobutyric acid, relative amount to control mice” value was “(70%)”; the “Isovaleric acid, relative amount to control mice” value is “(73%)”. Further, in assay [5] (cecal contents), the “Lactic acid, relative amount to control mice” value is given as “(1000%)”; the “Malic acid, relative amount to control mice” value is listed as “(179%)”; the “Propionic acid, relative amount to control mice” value is given as “(100%)”; the “Succinic acid, relative amount to control mice” value is reported as “(267%)”. Further, in assay [5] (cecal contents), the “Total organic acids, relative amount to control mice” value was “(109%)”; the “n-Butyric acid, relative amount to control mice” value is given as “(206%)”; the “n-Valeric acid, relative amount to control mice” value was “(73%)”. Also, in assay [5] (setting [10]), the “Amount of organic acid: Acetic acid” value came to 63 µmol/g, the “Amount of organic acid: Formic acid” value is 0.82 µmol/g, the “Amount of organic acid: Isobutyric acid” value amounted to 1.9 µmol/g and the “Amount of organic acid: Isovaleric acid” value is 2.4 µmol/g. For the same compound, in assay [5] (setting [10]), the “Amount of organic acid: Lactic acid” value worked out at 4.2 µmol/g, the “Amount of organic acid: Malic acid” value was determined as 1.5 µmol/g, the “Amount of organic acid: Propionic acid” value was found to be 12 µmol/g and the “Amount of organic acid: Succinic acid” value was 5.6 µmol/g. Further, in assay [5] (setting [10]), the “Amount of organic acid: Total organic acids” value is 106 µmol/g, the “Amount of organic acid: n-Butyric acid” value was found to be 14 µmol/g and the “Amount of organic acid: n-Valeric acid” value turned out to be 0.87 µmol/g. Moreover, in assay [5] (mouse, in vivo), the “lactic acid content in cecal contents (in words)” value is reported as “increased”. In assay [1] (ConA 2 μg/ml), the “Relative amount of IFN-γ” value turned out to be 269% and the “Relative amount of IL-4” value came out at 96%. In assay [1] (LPS 2 μg/ml), the “Relative amount of IFN-γ” value is on record as 103% and the “Relative amount of IL-4” value stood at 101%. Also, the “IFN-γ production by stimulation” value in assay [1] is given as “accelerated”.

Take `OC[C@H]1O[C@H](O[C@H]2[C@H](O)[C@@H](CO)OC(O)[C@@H]2O)[C@H](O)[C@@H](O)[C@@H]1O` (stereo partly shown) [Nigerose, nigerose]: the “Relative amount of IFN-γ” value was found to be 63% in assay [1] (ConA 2 μg/ml) and 104% in assay [1] (LPS 2 μg/ml). Further, the “Relative amount of IL-4” value stood at 100% in assay [1] (ConA 2 μg/ml) and 99% in assay [1] (LPS 2 μg/ml). For the same compound, the “IFN-γ production by stimulation” value in assay [1] is “suppressed”.
